Each block holds one compound with its values, some of them ahead of it.
Assays:
[1] = Induction of hydrogen peroxide generation at 100 uM after 30 mins by xylenol orange staining-based spectrophotometry in presence of GSH and oxygen; format: physicochemical; settings: 0.5 h
[2] = Antiproliferative activity against human THP1 cells after 72 hrs by XTT assay; format: functional, cell-based; settings: THP-1, 72 h
[3] = test system: HEK293; test: Antiproliferative activity against HEK293 cells after 72 hrs by XTT assay; format: cell-based; settings: Homo sapiens, HEK293, 72 h
[4] = Antiproliferative activity against human glioma cells; format: functional, cell-based; settings: Glioma cell
[5] = test system: HEK293; test: Selectivity index, ratio of IC50 for HEK293 cells to IC50 for human THP1 cells; format: functional

SMILES: O=C1c2ccccc2C(=O)C2OC12 (stereo not given)
- Activity [1]: 4.4 µM
- IC50 [2]: 6.3 µM
- IC50 [3]: 18.9 µM

SMILES: O=C1c2cccc([N+](=O)[O-])c2C(=O)C2OC12 (stereo not given)
- Activity [1]: 5.2 µM
- IC50 [2]: 3.6 µM
- IC50 [3]: 12.4 µM

SMILES: O=C1c2ccc([N+](=O)[O-])cc2C(=O)C2OC12 (stereo not given)
- Activity [1]: 8.34 µM
- IC50 [2]: 2.3 µM
- IC50 [3]: 55.4 µM

SMILES: Nc1cccc2c1C(=O)C1OC1C2=O (stereo not given)
- Activity [1]: 1.68 µM
- IC50 [2]: > 50 µM

SMILES: O=C1c2cccc(O)c2C(=O)C2OC12 (stereo not given)
- Activity [1]: 5.64 µM
- IC50 [2]: 11.2 µM

SMILES: CCOc1cccc2c1C(=O)C1OC1C2=O (stereo not given)
- Activity [1]: 1.68 µM
- IC50 [2]: 9.6 µM

SMILES: CC(=O)c1ccc(C23OC2C(=O)c2ccccc2C3=O)cc1 (stereo not given)
- Activity [1]: 1.36 µM
- IC50 [2]: > 50 µM

SMILES: COc1cccc2c1C(=O)c1c(O)c3c(c(O)c1C2=O)C[C@@](O)(C(=O)CO)C[C@@H]3O[C@H]1C[C@H](N)[C@H](O)[C@H](C)O1 [DOXORUBICIN]
- IC50 [2]: 0.11 µM
- IC50 [3]: 0.7 µM
- Ratio IC50 [5]: 6.4

More lines, main results first:

- Activity [1]: 1.6 µM
SMILES: CC12OC1C(=O)c1c(O)cccc1C2=O (stereo not given)
- IC50 [2]: 22.8 µM

- Activity [1]: 1.6 µM
SMILES: O=C1c2cccc(OCc3ccccc3)c2C(=O)C2OC12 (stereo not given)
- IC50 [2]: 28 µM

- Activity [1]: 1.68 µM
SMILES: O=C1c2cccc(OCc3ccc(C(F)(F)F)cc3)c2C(=O)C2OC12 (stereo not given)
- IC50 [2]: > 50 µM

- Activity [1]: 1.52 µM
SMILES: CC12OC1C(=O)c1ccccc1C2=O (stereo not given)
- IC50 [2]: 13.6 µM
- IC50 [4]: 15.7 µM

- Activity [1]: 1.58 µM
SMILES: CC12OC1C(=O)c1c(OCc3ccccc3)cccc1C2=O (stereo not given)
- IC50 [2]: > 50 µM

- Activity [1]: 1.44 µM
SMILES: O=C1c2ccccc2C(=O)C2(c3ccccc3)OC12 (stereo not given)
- IC50 [2]: > 50 µM

- Activity [1]: 1.4 µM
SMILES: O=C1c2ccccc2C(=O)C2(c3cccc([N+](=O)[O-])c3)OC12 (stereo not given)
- IC50 [2]: > 50 µM

- Activity [1]: 1.36 µM
SMILES: O=C1c2ccccc2C(=O)C2(c3ccc(F)cc3)OC12 (stereo not given)
- IC50 [2]: 11.7 µM

- Activity [1]: 1.48 µM
SMILES: Cc1ccc(C23OC2C(=O)c2ccccc2C3=O)cc1 (stereo not given)
- IC50 [2]: 20.4 µM

- Activity [1]: 1.28 µM
SMILES: COc1ccccc1C12OC1C(=O)c1ccccc1C2=O (stereo not given)
- IC50 [2]: 12.4 µM

- Activity [1]: 1.46 µM
SMILES: COc1cccc(C23OC2C(=O)c2ccccc2C3=O)c1 (stereo not given)
- IC50 [2]: > 50 µM

- Activity [1]: 1.4 µM
SMILES: COc1ccc(C23OC2C(=O)c2ccccc2C3=O)cc1 (stereo not given)
- IC50 [2]: 11.6 µM

— ChEMBL document CHEMBL3217666, “Synthesis, thiol-mediated reactive oxygen species generation profiles and anti-proliferative activities of 2,3-epoxy-1,4-naphthoquinones” (Medchemcomm, 2012)
